In patent US20120027822A1, “Process for Producing Rapidly Disintegrating Spheroids (Pellets), Granules and/or Mixtures Thereof” (SPECIFAR S.A., priority 2009, published 2012):

Experiments:
[1] = Polymorph study by X-Ray Powder Diffraction (XRPD); type: physicochemical; conditions: XRPD of powder from spheroids of example 7a versus dihydrate and trihydrate patterns
Method: All the formulations described in examples 7a-7h released the API quantitatively in 15 minutes. In addition, a polymorph study was performed and the crystal phase of Esomeprazole Mg powder deriving from the spheroids of example 7a was established through the application of the X-Ray Powder Diffraction (XRPD) technique. The recorded XRD patterns shown in FIG. 2 were compared against the respective patterns of the dihydrate and trihydrate forms provided by the manufacturer. […] None of the characteristic trihydrate reflections, marked with arrows in FIG. 2, could be observed.

[2] = water; cited from earlier work

COc1ccc2[n-]c([S@@+]([O-])Cc3ncc(C)c(OC)c3C)nc2c1.COc1ccc2[n-]c([S@@+]([O-])Cc3ncc(C)c(OC)c3C)nc2c1.O.O.[Mg+2] [Esomeprazole Magnesium Dihydrate]
crystal habit after the aqueous pelletization process [1]: without deteriorating the crystal habit

COc1ccc2nc([S@@+]([O-])Cc3ncc(C)c(OC)c3C)[nH]c2c1 [Esomeprazole]
aqueous solubility class (US Pharmacopoeia terms) [2]: slightly soluble or insoluble

CCC1=C(C)CN(C(=O)NCCc2ccc(S(=O)(=O)NC(=O)N[C@H]3CC[C@H](C)CC3)cc2)C1=O [Glimepiride]
aqueous solubility class (US Pharmacopoeia terms) [2]: practically insoluble

Cc1c(OCC(F)(F)F)ccnc1C[S+]([O-])c1nc2ccccc2[nH]1 (stereo not shown) [Lansoprazole]
aqueous solubility class (US Pharmacopoeia terms) [2]: practically insoluble

COc1ccc2[nH]c([S+]([O-])Cc3ncc(C)c(OC)c3C)nc2c1 (stereo not shown) [Omeprazole]
aqueous solubility class (US Pharmacopoeia terms) [2]: very slightly soluble

COc1ccnc(C[S+]([O-])c2nc3ccc(OC(F)F)cc3[nH]2)c1OC (stereo not shown) [Pantoprazole]
aqueous solubility class (US Pharmacopoeia terms) [2]: freely soluble

COCCCOc1ccnc(C[S+]([O-])c2nc3ccccc3[nH]2)c1C (stereo not shown) [Rabeprazole]
aqueous solubility class (US Pharmacopoeia terms) [2]: very soluble
